Molecular target: T1, KDM4B (Homo sapiens, UniProt O94953)
T1 sequence (O94953 1-366): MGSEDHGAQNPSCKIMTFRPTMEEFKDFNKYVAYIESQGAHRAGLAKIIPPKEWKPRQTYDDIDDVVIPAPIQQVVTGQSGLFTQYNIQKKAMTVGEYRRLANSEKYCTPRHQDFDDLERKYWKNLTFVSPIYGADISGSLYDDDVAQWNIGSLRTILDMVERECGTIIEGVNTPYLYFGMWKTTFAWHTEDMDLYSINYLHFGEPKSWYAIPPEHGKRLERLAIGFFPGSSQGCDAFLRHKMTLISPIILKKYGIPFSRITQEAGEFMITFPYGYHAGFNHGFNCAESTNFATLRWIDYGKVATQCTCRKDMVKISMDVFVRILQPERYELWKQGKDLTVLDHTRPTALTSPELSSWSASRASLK
Experiment: co-crystal structure
Format: binding

Kd: 105 nM
SMILES: CN(c1ccccc1)c1ccc2c(c1)CCC[C@H]2CNc1cnccc1C(=O)O [QC6352]
